We go through two substances from patent publication US20070218504A1, “HUMAN LEPTIN-DERIVED POLYPEPTIDES AND USES THEREOF” (UNIVERSITY OF PITTSBURGH, priority 2006, published 2007).

For experiment [1], the target named is T1, long-form human leptin receptor, OB-Rb (Homo sapiens, UniProt P48357).
T1 construct: expressed in transfected cells
T1 sequence (P48357 22-1165): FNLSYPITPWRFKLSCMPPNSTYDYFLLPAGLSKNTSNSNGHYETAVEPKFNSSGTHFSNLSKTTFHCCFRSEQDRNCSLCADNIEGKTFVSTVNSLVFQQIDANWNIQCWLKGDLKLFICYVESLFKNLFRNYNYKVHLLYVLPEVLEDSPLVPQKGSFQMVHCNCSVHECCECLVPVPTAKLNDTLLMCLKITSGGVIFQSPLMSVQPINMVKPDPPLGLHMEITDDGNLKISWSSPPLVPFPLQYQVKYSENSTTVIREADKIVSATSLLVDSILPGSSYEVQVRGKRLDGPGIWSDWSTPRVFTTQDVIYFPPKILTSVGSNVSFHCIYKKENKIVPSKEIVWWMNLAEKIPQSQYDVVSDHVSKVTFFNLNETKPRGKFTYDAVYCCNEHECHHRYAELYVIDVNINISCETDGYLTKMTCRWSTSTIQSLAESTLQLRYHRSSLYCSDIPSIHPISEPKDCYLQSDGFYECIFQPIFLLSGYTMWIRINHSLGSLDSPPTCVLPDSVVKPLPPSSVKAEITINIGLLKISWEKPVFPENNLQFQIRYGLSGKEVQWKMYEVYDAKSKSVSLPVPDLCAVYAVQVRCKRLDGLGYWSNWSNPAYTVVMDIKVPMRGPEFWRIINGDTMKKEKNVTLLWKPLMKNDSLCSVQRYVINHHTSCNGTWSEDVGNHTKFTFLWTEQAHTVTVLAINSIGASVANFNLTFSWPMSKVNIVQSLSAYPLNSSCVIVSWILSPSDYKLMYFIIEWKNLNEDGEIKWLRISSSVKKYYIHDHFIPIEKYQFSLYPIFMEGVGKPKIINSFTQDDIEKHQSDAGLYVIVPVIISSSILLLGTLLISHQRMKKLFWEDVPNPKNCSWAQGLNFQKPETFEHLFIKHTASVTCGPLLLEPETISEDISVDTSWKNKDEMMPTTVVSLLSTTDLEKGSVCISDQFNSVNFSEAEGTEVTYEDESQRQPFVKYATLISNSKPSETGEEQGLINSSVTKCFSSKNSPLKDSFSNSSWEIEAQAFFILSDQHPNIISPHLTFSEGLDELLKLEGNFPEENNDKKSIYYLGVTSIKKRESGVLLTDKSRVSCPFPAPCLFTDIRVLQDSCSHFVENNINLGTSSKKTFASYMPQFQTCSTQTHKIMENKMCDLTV
The experiment is described as follows: 125I-labeled human leptin binding to OB-Rb on stably transfected HEK293 cells, with or without pre-incubation with human CRP. How it is done:
FIG. 4A. Interference effect of human CRP on human leptin binding to its receptor. HEK293 cells stably transfected with the long-form human leptin receptor, OB-Rb (14), are used to examine whether human CRP interferes with the ability of human leptin to bind to its receptor. […] The dashed line at the bottom right of the graph indicates ^125I-leptin bound when two thousand fold excess of non-labeled leptin is added.
To examine if CRP binding interferes with the stability of human leptin to bind to its receptors, a HEK293 cell line stably transfected with the long-form human leptin receptor, OB—Rb, was used (17). Human leptin was iodinated with Na^125I using the lodogen method. Briefly, 15 μg of recombinant human leptin in 100 mM Phosphate buffer pH 7.5 were incubated with 1 mCi of carrier-free Na^125I (2200 Ci/mmol) in a glass tube containing 50 μg Iodogen. After 10-minute incubation at room temperature, the reaction was stopped with 100 μl 0.1% trifluoroacetic acid (TFA). The reaction mixture was immediately purified by reverse-phase HPLC. The separation employed a 5-minute isocratic step at 20% eluant B in A, followed by two consecutive 30 min linear gradients from 20 to 50%, then from 50 to 60% eluant B in A (where eluant A is water containing 0.1% TFA and eluant B is acetonitrile containing 0.1% TFA) at a flow rate of 1.5 ml/min. […]

Experiment [2] has as its system ob/ob mice. Put plainly: Intracerebralventricular (i.c.v.) injection of human CRP and leptin in ob/ob mice, food intake and body weight. The experiment is classed as in vivo, mouse. How it is done: Male C57BL/6J ob/ob mice used in this study were obtained from the Jackson Laboratory, Bar Harbor. Mice (7-8 weeks of age) were fed standard chow and water ad libitum, housed in individual cages under controlled temperature at 22° C. and a 12-hour light-dark cycle with light from 0700 to 1900 h. Food intake and body weight were measured daily throughout the study. All experimental procedures were performed according to protocols approved by the Institutional Animal Care and Use Committee at the University of Pittsburgh. Cannulas were surgically implanted into the lateral ventricles of male ob/ob mice. Specifically, the mice were intraperitoneally anesthetized with 250 mg/Kg Avertin (Sigma-Aldrich). A plastic cannula was inserted into lateral cerebral ventricle: −0.7 mm relative to bregma, 1.3 mm lateral of midline, and 2 mm down to the calvarium. The exteriorized cannula was secured on the skull with original Super Glue. To prevent the cannula from becoming blocked by blood clots, a 28-gauge stainless syringe pinhead was inserted into each cannula. The animals were allowed to recover for 1 week after surgery until the food-intake reaches at least 90% of the pre-operative level. All agents were injected slowly with a volume of 1 μl using a 5 μl syringe (Hamilton, Reno, Nev.). For instance, human CRP was injected at a lower concentration of 1.2 μg per animal and a higher concentration of 2.3 μg per animal into the lateral ventricles. The i.c.v injection of human CRP was followed 24 hours later by injection of human leptin at a sub-maximal dose of 100 ng/animal. In a parallel experiment, human leptin was also injected via i.c.v. following a pre-injection of PBS. In each injection scheme, food was returned to the animals 1 hour after the injection, and the amount of food-intake and body weight were measured 24 hours later. All paired comparisons were subject to a two-tailed Student t-test with P<0.05 considered statistically significant. Additionally, human leptin was injected via i.c.v. for an extended period of two days subsequent to a pre-injection of human CRP with a dosage of 2.3 μg/injection. In a parallel experimental scheme, daily injection of human leptin was performed for two consecutive days subsequent to a pre-injection of PBS.

The mark [3] stands for this setting: human leptin 100 ng/animal i.c.v. after PBS pre-injection, 24 hours.

Consider “human CRP: human C-reactive protein, purified preparation from a commercial source”, for which, in experiment [1] (in the presence of about 2 ng/ml human leptin, 1 hour pre-incubation), the “IC50 of human CRP for reducing 125I-labeled human leptin binding to its receptor” value is “approximately 80 ng/ml”. Further, the “effect of CRP pre-injection on satiety and weight reducing effects of human leptin, 1.2 μg” value in experiment [2] (human CRP 1.2 μg i.c.v. 24 hours before leptin) is on record as “partially blunted”. Moreover, in experiment [2] (human CRP 2.3 μg/injection), the “effect of CRP pre-injection on first injection of human leptin” value is “completely blunted” and the “effect of CRP pre-injection on second injection of human leptin” value is recorded as “at least partially blocked”. Moreover, in experiment [2] (human CRP 2.3 μg/μl i.c.v. 24 hours before leptin), the “effect of CRP pre-injection on satiety and weight reducing effects of human leptin, 2.3 μg” value is recorded as “completely blocked”. In addition, the “food consumed after CRP alone compared to PBS alone” value in experiment [2] (i.c.v., ob/ob mice) is “essentially the same amount of food”.
Broadly, the Kd is the equilibrium constant for the complex coming apart. Low values mean higher affinity, high ones lower affinity. The substance human leptin: human recombinant leptin came in with a dissociation constant Kd in experiment [1] (HEK293 cells stably transfected with OB-Rb) of 1 nM. In addition, in experiment [2] (after PBS pre-injection), the “effect of daily injection of human leptin for two days on food intake and body weight” value was “gradual decreases in food intake and body weight”. In addition, in experiment [2] (setting [3]), the decrease in food-intake came to 40.2% and the “reduction of body weight” value was 2.17%.
